From article PMC8877094, “Antiparasitic Ovalicin Derivatives from Pseudallescheria boydii, a Mutualistic Fungus of French Guiana Termites” (Molecules, 2022)
Like-named read-outs stand apart in the source and are kept apart here.

What was measured:
Type in all cases: cell-based
[1] = tested on: Human umbilical vein endothelial cells (HUVECs); test: Cytotoxic assay on HUVECs (CellTiter-Blue); conditions: HUVEC, read-out: HUVECs (IC50 µM)
Procedure: Human umbilical vein endothelial cells (HUVECs) were obtained from Clonetics (Lonza; Walkersville, MD, USA) and cultured according to the supplier’s instructions. Briefly, HUVECs from three to six passages were subcultured to confluence onto 0.2% gelatin-coated tissue culture flasks in endothelial cell growth medium (EGM2) containing growth factors and 2% FCS. All cell lines were maintained at 37 °C in a humidified atmosphere containing 5% CO2. Cell viability was assessed using Promega (Promega France, Charbonnière-les-Bains, France) CellTiter-BlueTM reagent according to the manufacturer’s instructions. Cells were seeded in 96-well plates (5 × 10^3 cells per well) containing […] growth medium. After 24 h of culture, the cells were supplemented with […] of test compound dissolved in DMSO (<0.1% in each preparation). After incubation for 72 h, […] resazurin was added for 2 h before recording fluorescence (λex = 560 nm, λem = 590 nm) using a Victor microtiter plate fluorimeter (PerkinElmer France, Villebon-sur-Yvette, France). IC50 values correspond to the concentration of test compound that elicited a 50% decrease in fluorescence for drug-treated cells relative to untreated cells. Experiments were performed in triplicate.

[2] = tested on: Plasmodium falciparum FcB1/Colombia strain; test: In vitro growth inhibition of chloroquine-resistant P. falciparum ([3H]-hypoxanthine incorporation); conditions: FCB1, Erythrocyte, 48 h
Procedure: The FcB1/Colombian strain of Plasmodium falciparum was maintained in vitro in human erythrocytes in an RPMI 1640 reaction mixture supplemented with 8% (v/v) heat-inactivated human serum at 37 °C under an atmosphere of 3% CO2, 6% O2, and 91% N2. The chloroquine-resistant strain FcB1/Colombia of Plasmodium falciparum was obtained from the National Museum Natural History collection, Paris, France (n°MNHN-CEU-224-PfFCB1). Parasites were maintained in vitro on human A+ erythrocytes in RPMI 1640 medium supplemented by 8% (v/v) heat-inactivated human serum at 37 °C under an atmosphere of 3% CO2, 6% O2, and 91% N2. Human red blood cells and serum were provided by the Etablissement Français du Sang, Ile de France (EFS, Paris, France) under the C-CPSL-UNT approval n°13/EFS/126. In vitro drug susceptibility assays were measured by [^3H]-hypoxanthine incorporation as described previously. Drug solutions were prepared in DMSO at a 10 mM concentration. Compounds were serially diluted 2-fold with 100 μL culture medium in 96-well plates. Asynchronous parasite cultures (100 μL, 1% parasitemia and 1% final hematocrit) were then added to each well and incubated for 24 h at 37 °C prior to the addition of 0.5 μCi of [^3H]-hypoxanthine (GE Healthcare, Tremblay-en-France, France, 1 to 5 Ci·mmol/mL) per well. After a further incubation of 24 h, plates were frozen and thawed. Cell lysates were then collected onto fiberglass filters and counted in a liquid scintillation spectrometer. The growth inhibition for each drug concentration was determined by comparison of the radioactivity incorporated in the treated culture with that in the control culture maintained on the same plate. The concentration causing 50% growth inhibition (IC50) was obtained from the drug concentration–response curve, and the results are expressed as the mean values ± standard deviations determined from several independent experiments.

[3] = tested on: Trypanosoma brucei brucei strain 93 bloodstream forms; test: In vitro inhibition of T. brucei brucei growth (AlamarBlue/resazurin); conditions: bloodstream forms strain 93, 72 h incubation + 4 h resazurin, mean ± SD of three independent experiments
Procedure: Bloodstream forms of Trypanosoma brucei brucei strain 93 were cultured in HMI9 medium supplemented with 10% FCS at 37 °C under an atmosphere of 5% CO2. In all experiments, log-phage cell cultures were harvested by centrifugation at 3000× g and immediately used. Drug assays were based on the conversion of a redox-sensitive dye (resazurin) to a fluorescent product by viable cells and were performed according to the manufacturer recommendations (AlamarBlue® Assay, Invitrogen Corporation, Carlsbad, CA, USA). Drug stock solutions were prepared in pure DMSO. […] After a 72 h incubation, resazurin solution was added to each well at with a final concentration of 45 μM. Fluorescence was measured at 530 nm excitation and 590 nm emission wavelengths after a further 4 h incubation. The percentage of inhibition of the parasite growth rate was calculated by comparing the fluorescence of parasites maintained in the presence of drug with that in the absence of drug. DMSO was used as control. […] IC50s were determined from the dose–response curves with drug concentrations ranging from 100 μM to 50 nM. The IC50 value is the mean ± the standard deviation of three independent experiments.

[4] = cell viability, 72 h incubation, CellTiter-Blue, triplicate
[5] = chloroquine-resistant FcB1/Colombia strain, human erythrocytes, 24 h + 24 h with [3H]-hypoxanthine, mean ± SD, read-out: P. falciparum (IC50 µM)

SMILES: CO[C@@H]1C(=O)CC[C@]2(CO2)[C@@]1(O)[C@@]1(C)O[C@@H]1CC=C(C)C [Compound 1, Ovalicin]
- IC50 [1, 4]: 13 ± 2 µM
- IC50 ([2]; read-out: P. falciparum (IC50 µM), chloroquine-resistant FcB1/Colombia strain, human erythrocytes, 24 h + 24 h with [3H]-hypoxanthine, mean ± SD): < 20.6 µM

SMILES: CCCCC/C=C\C/C=C\CCCCCCCC(=O)OC[C@@]1(O)CCC(=O)[C@@H](OC)[C@]1(O)[C@@]1(C)O[C@@H]1CC=C(C)C [Compound 2, Ovalicin linoleate]
- IC50 ([3]; 72 h): < 1.1 µM
- IC50 [1, 4]: 37 ± 3 µM
- IC50 [2, 5]: < 20.6 µM

SMILES: CCCCCCCC/C=C\CCCCCCCC(=O)OC[C@@]1(O)CCC(=O)[C@@H](OC)[C@]1(O)[C@@]1(C)O[C@@H]1CC=C(C)C [Compound 3, Ovalicin oleate]
- IC50 ([3]; 72 h): 4.8 ± 2.7 µM
- IC50 [1, 4]: 45 ± 2 µM
- IC50 [2, 5]: > 50 µM

SMILES: CCCCCCCCCCCCCCCCCC(=O)OC[C@@]1(O)CCC(=O)[C@@H](OC)[C@]1(O)[C@@]1(C)O[C@@H]1CC=C(C)C [Compound 4]
- IC50 ([3]; 72 h): 4.1 ± 2.1 µM
- IC50 [1, 4]: 70 ± 1 µM
- IC50 [2, 5]: < 20.6 µM

SMILES: CO[C@@H]1[C@H](OC(=O)/C=C/C=C/C=C/C=C/C(=O)O)CC[C@]2(CO2)[C@H]1[C@@]1(C)O[C@@H]1CC=C(C)C [Fumagillin, reference compound]
- IC50 ([1]; 72 h): 0.006 ± 0.002 µM

SMILES: N=C(N)c1ccc(OCCCCCOc2ccc(C(=N)N)cc2)cc1 [Pentamidine, reference compound]
- IC50 [3]: 0.011 ± 0.0017 µM
